Assay: xn = mol fraction of the nth substance listed
Conditions: for mass density / viscosity: 100 kPa, Liquid; for mass density: Vibrating tube method; for surface tension liquid-gas: Drop volume

OCC1CCCCC1 [cyclohexylmethanol] + CC12CC3CC(C1)CC(C)(C3)C2
Conditions | mass density [kg/m3] | surface tension liquid-gas [mN/m] | viscosity [mPa·s]
293.15 K, x1 = 0.1027 | 903.21 | – | 4.113
293.15 K, x1 = 0.1995 | 905.07 | – | 4.718
293.15 K, x1 = 0.3012 | 907.15 | – | 5.602
293.15 K, x1 = 0.4004 | 909.76 | – | 6.901
293.15 K, x1 = 0.4973 | 912.51 | – | 8.435
293.15 K, x1 = 0.6008 | 915.54 | – | 11.2
293.15 K, x1 = 0.7002 | 918.7 | – | 14.93
293.15 K, x1 = 0.7892 | 922.49 | – | 21.14
293.15 K, x1 = 0.9 | 925.92 | – | 28.69
293.15 K, x1 = 1 | 929.76 | – | 37.75
298.15 K, x1 = 0.1002 | – | 28.2 | –
298.15 K, x1 = 0.1027 | 899.59 | – | 3.615
298.15 K, x1 = 0.1995 | 901.44 | 28.36 | 4.111
298.15 K, x1 = 0.2996 | – | 28.56 | –
298.15 K, x1 = 0.3012 | 903.51 | – | 4.827
298.15 K, x1 = 0.4004 | 906.13 | 28.74 | 5.842
298.15 K, x1 = 0.4973 | 908.85 | 28.95 | 7.114
298.15 K, x1 = 0.6008 | 911.97 | 29.35 | 9.121
298.15 K, x1 = 0.7002 | 915.07 | 29.83 | 11.9
298.15 K, x1 = 0.7892 | 918.88 | – | 16.63
298.15 K, x1 = 0.7999 | – | 30.46 | –
298.15 K, x1 = 0.9 | 922.36 | 31.33 | 22.11
298.15 K, x1 = 1 | 926.25 | 32.43 | 28.67
303.15 K, x1 = 0.1027 | 895.96 | – | 3.204
303.15 K, x1 = 0.1995 | 897.78 | – | 3.618
303.15 K, x1 = 0.3012 | 899.85 | – | 4.192
303.15 K, x1 = 0.4004 | 902.45 | – | 5.005
303.15 K, x1 = 0.4973 | 905.16 | – | 5.993
303.15 K, x1 = 0.6008 | 908.3 | – | 7.528
303.15 K, x1 = 0.7002 | 911.44 | – | 9.63
303.15 K, x1 = 0.7892 | 915.23 | – | 13.35
303.15 K, x1 = 0.9 | 918.75 | – | 17.36
303.15 K, x1 = 1 | 922.71 | – | 22.34
308.15 K, x1 = 0.1027 | 892.31 | – | 2.857
308.15 K, x1 = 0.1995 | 894.11 | – | 3.194
308.15 K, x1 = 0.3012 | 896.17 | – | 3.666
308.15 K, x1 = 0.4004 | 898.75 | – | 4.326
308.15 K, x1 = 0.4973 | 901.46 | – | 5.097
308.15 K, x1 = 0.6008 | 904.6 | – | 6.204
308.15 K, x1 = 0.7002 | 907.77 | – | 7.907
308.15 K, x1 = 0.7892 | 911.57 | – | 10.82
308.15 K, x1 = 0.9 | 915.12 | – | 13.92
308.15 K, x1 = 1 | 919.14 | – | 17.57
313.15 K, x1 = 0.1027 | 888.65 | – | 2.56
313.15 K, x1 = 0.1995 | 890.42 | – | 2.841
313.15 K, x1 = 0.3012 | 892.47 | – | 3.229
313.15 K, x1 = 0.4004 | 895.03 | – | 3.764
313.15 K, x1 = 0.4973 | 897.73 | – | 4.377
313.15 K, x1 = 0.6008 | 900.87 | – | 5.311
313.15 K, x1 = 0.7002 | 904.09 | – | 6.578
313.15 K, x1 = 0.7892 | 907.87 | – | 8.883
313.15 K, x1 = 0.9 | 911.45 | – | 11.3
313.15 K, x1 = 1 | 915.53 | – | 14.09
318.15 K, x1 = 0.1027 | 884.98 | – | 2.305
318.15 K, x1 = 0.1995 | 886.71 | – | 2.539
318.15 K, x1 = 0.3012 | 888.75 | – | 2.859
318.15 K, x1 = 0.4004 | 891.29 | – | 3.299
318.15 K, x1 = 0.4973 | 893.98 | – | 3.787
318.15 K, x1 = 0.6008 | 897.11 | – | 4.529
318.15 K, x1 = 0.7002 | 900.37 | – | 5.508
318.15 K, x1 = 0.7892 | 904.14 | – | 7.34
318.15 K, x1 = 0.9 | 907.74 | – | 9.262
318.15 K, x1 = 1 | 911.88 | – | 11.43
323.15 K, x1 = 0.1027 | 881.29 | – | 2.085
323.15 K, x1 = 0.1995 | 882.99 | – | 2.28
323.15 K, x1 = 0.3012 | 885.01 | – | 2.546
323.15 K, x1 = 0.4004 | 887.53 | – | 2.911
323.15 K, x1 = 0.4973 | 890.21 | – | 3.302
323.15 K, x1 = 0.6008 | 893.33 | – | 3.896
323.15 K, x1 = 0.7002 | 896.61 | – | 4.604
323.15 K, x1 = 0.7892 | 900.37 | – | 6.145
323.15 K, x1 = 0.9 | 904 | – | 7.642
323.15 K, x1 = 1 | 908.19 | – | 9.354
328.15 K, x1 = 0.1027 | 877.59 | – | 1.894
328.15 K, x1 = 0.1995 | 879.24 | – | 2.057
328.15 K, x1 = 0.3012 | 881.25 | – | 2.279
328.15 K, x1 = 0.4004 | 883.75 | – | 2.58
328.15 K, x1 = 0.4973 | 886.41 | – | 2.898
328.15 K, x1 = 0.6008 | 889.51 | – | 3.375
328.15 K, x1 = 0.7002 | 892.81 | – | 3.992
328.15 K, x1 = 0.7892 | 896.56 | – | 5.076
328.15 K, x1 = 0.9 | 900.21 | – | 6.342
328.15 K, x1 = 1 | 904.45 | – | 7.766
333.15 K, x1 = 0.1027 | 873.88 | – | 1.727
333.15 K, x1 = 0.1995 | 875.48 | – | 2.105
333.15 K, x1 = 0.3012 | 877.47 | – | 2.048
333.15 K, x1 = 0.4004 | 879.94 | – | 2.3
333.15 K, x1 = 0.4973 | 882.58 | – | 2.56
333.15 K, x1 = 0.6008 | 885.67 | – | 2.946
333.15 K, x1 = 0.7002 | 888.98 | – | 3.443
333.15 K, x1 = 0.7892 | 892.71 | – | 4.253
333.15 K, x1 = 0.9 | 896.38 | – | 5.984
333.15 K, x1 = 1 | 900.67 | – | 6.462

From the NIST ThermoML archive (doi:10.1021/je500381c)
